According to ChEMBL document CHEMBL1201862, “PubChem BioAssay data set” (2004):
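Briefly, cells in 96-well plates were exposed to five compound concentrations for 48 h, and endpoints were estimated by linear interpolation. GI50 marks 50% less growth.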 Active and inactive are the calls of the source. No stated cut-off is given here; in the data, active = GI50 up to about 1.1 µM and inactive = higher.

Tests used:
Experiment in all cases: inhibition of tumour cell growth, NCI panel, 48 h
A549 = system: A549
CCRF-CEM = system: CCRF-CEM
EKVX = system: EKVX
HCT-15 = system: HCT-15
HOP-62 = system: HOP-62
IGROV-1 = system: IGROV-1
NCI-H522 = system: NCI-H522
OVCAR-3 = system: OVCAR-3
OVCAR-5 = system: OVCAR-5
OVCAR-8 = system: OVCAR-8
SF-268 = system: SF-268
SK-MEL-2 = system: SK-MEL-2
SN12C = system: SN12C
SR = system: SR
UACC-257 = system: UACC-257
HCT-116 = system: HCT-116

Structure (SMILES) | GI50 (A549) | GI50 (CCRF-CEM) | GI50 (EKVX) | GI50 (HCT-15) | GI50 (HOP-62) | GI50 (IGROV-1) | GI50 (NCI-H522) | GI50 (OVCAR-3) | GI50 (OVCAR-5) | GI50 (OVCAR-8) | GI50 (SF-268) | GI50 (SK-MEL-2) | GI50 (SN12C) | GI50 (SR) | GI50 (UACC-257) | GI50 (HCT-116)
COc1cccc2c1C(=O)c1c(O)c3c(c(O)c1C2=O)C[C@@](O)(C(=O)CO)CC3OC1CC(NCCCC(OC(C)=O)OC(C)=O)C(O)C(C)O1 (some centres undefined) | 0.00333 µM (active) | 0.00212 µM (active) | 0.00277 µM (active) | 0.00225 µM | 0.00165 µM (active) | 0.006 µM (active) | 0.00129 µM (active) | 0.0045 µM (active) | 0.00267 µM (active) | 0.00196 µM (active) | 0.00305 µM (active) | 0.00192 µM (active) | 0.00152 µM (active) | < 0.0001 µM (active) | 0.00269 µM (active) | –
CN1Cc2ccccc2C2(COc3ccccc3C2=O)C1 (centres undefined) | > 100 µM (inactive) | 74.3 µM (inactive) | > 100 µM (inactive) | > 100 µM | > 100 µM (inactive) | 28.7 µM (inactive) | 98.2 µM (inactive) | 77.8 µM (inactive) | > 100 µM (inactive) | > 100 µM (inactive) | > 100 µM (inactive) | > 100 µM (inactive) | > 100 µM (inactive) | 31.8 µM (inactive) | 62.7 µM (inactive) | > 100 µM (inactive)
O=C1CCCC/C1=C\c1ccc(Cl)c(Cl)c1 | 34.4 µM (inactive) | 21.3 µM (inactive) | 45.7 µM (inactive) | 19.1 µM | 57.7 µM (inactive) | 25.2 µM (inactive) | – | – | – | 23.6 µM (inactive) | 23.3 µM (inactive) | – | 16.6 µM (inactive) | – | – | 17.1 µM (inactive)
CC1=C(Cl)C=CP(=O)(Oc2ccccc2)C1 (centres undefined) | 38.8 µM (inactive) | > 10 µM (inactive) | > 100 µM (inactive) | 74.3 µM | > 100 µM (inactive) | > 100 µM (inactive) | 15.6 µM (inactive) | > 100 µM (inactive) | > 100 µM (inactive) | 23.3 µM (inactive) | 29.1 µM (inactive) | 41.3 µM (inactive) | – | – | 71.6 µM (inactive) | 30.8 µM (inactive)
C[C@]12CCc3nonc3C1CC[C@@H]1C2CC[C@]2(C)C(=O)CCC12 (some centres undefined) | 25.8 µM (inactive) | 24.1 µM (inactive) | 17.1 µM (inactive) | 31.2 µM | > 100 µM (inactive) | 67.1 µM (inactive) | 19.8 µM (inactive) | 25.5 µM (inactive) | > 100 µM (inactive) | 31.2 µM (inactive) | 39.4 µM (inactive) | 24.5 µM (inactive) | 35.1 µM (inactive) | – | > 10 µM (inactive) | –
O=C(c1ccccc1)c1c(CC(O)c2ccncc2)n(C(=O)c2ccccc2)c2ccccc12 (centres undefined) | 17.8 µM (inactive) | 25.1 µM (inactive) | – | 17.4 µM | 16.4 µM (inactive) | 16.7 µM (inactive) | 13.2 µM (inactive) | 14 µM (inactive) | 15.8 µM (inactive) | 30 µM (inactive) | 20.7 µM (inactive) | 16 µM (inactive) | – | 16.6 µM (inactive) | 17.5 µM (inactive) | 15.6 µM (inactive)
COc1cc(OC)c2c(O)cc(CC(C)O)cc2c1 (centres undefined) | > 100 µM (inactive) | > 100 µM (inactive) | > 100 µM (inactive) | > 100 µM | > 100 µM (inactive) | > 100 µM (inactive) | > 100 µM (inactive) | > 100 µM (inactive) | > 100 µM (inactive) | > 100 µM (inactive) | > 100 µM (inactive) | > 100 µM (inactive) | > 100 µM (inactive) | > 100 µM (inactive) | > 100 µM (inactive) | > 100 µM (inactive)
CN1CCCS/C1=C1/SC(=S)N(c2ccccc2)C1=O | > 100 µM (inactive) | > 100 µM (inactive) | > 100 µM (inactive) | > 100 µM | > 100 µM (inactive) | > 100 µM (inactive) | > 100 µM (inactive) | > 100 µM (inactive) | > 100 µM (inactive) | > 100 µM (inactive) | > 100 µM (inactive) | > 100 µM (inactive) | > 100 µM (inactive) | > 100 µM (inactive) | > 100 µM (inactive) | > 100 µM (inactive)
COc1ccc(C(c2ccccc2)(c2ccc(OC)cc2)N2C(=O)NC3C(CCCCC(=O)NCCCCCCOP(OCCC#N)N(C(C)C)C(C)C)SCC32)cc1 (centres undefined) | 20.3 µM (inactive) | 9.12 µM (inactive) | 21.5 µM (inactive) | 18 µM | 17.6 µM (inactive) | 18.7 µM (inactive) | 12.7 µM (inactive) | 14.8 µM (inactive) | > 10 µM (inactive) | 29.2 µM (inactive) | 15.2 µM (inactive) | 11.6 µM (inactive) | – | 8.07 µM (inactive) | 19.3 µM (inactive) | 12 µM (inactive)
O=C(CCC(=O)Nc1ccc(Cl)c(Cl)c1)CC(=O)c1ccc2ccccc2c1 | > 100 µM (inactive) | > 100 µM (inactive) | > 100 µM (inactive) | 39.8 µM | > 100 µM (inactive) | > 100 µM (inactive) | 89.5 µM (inactive) | > 100 µM (inactive) | > 100 µM (inactive) | > 100 µM (inactive) | > 100 µM (inactive) | 41.8 µM (inactive) | > 100 µM (inactive) | – | > 100 µM (inactive) | > 100 µM (inactive)
C/C(=N\NC(=O)C[N+](C)(C)C)c1sc(-c2cccnc2)nc1C | > 100 µM (inactive) | > 100 µM (inactive) | > 100 µM (inactive) | – | > 100 µM (inactive) | > 100 µM (inactive) | 42.7 µM (inactive) | > 100 µM (inactive) | > 100 µM (inactive) | > 100 µM (inactive) | > 100 µM (inactive) | > 100 µM (inactive) | – | – | > 100 µM (inactive) | > 100 µM (inactive)
NC(CCCNc1ccc(O)cc1)C(=O)O (centres undefined) | > 94.2 µM (inactive) | 23.4 µM (inactive) | 38.8 µM (inactive) | 30.1 µM | > 80.2 µM (inactive) | 26.4 µM (inactive) | 61.4 µM (inactive) | 18.1 µM (inactive) | > 100 µM (inactive) | 33.7 µM (inactive) | 42.8 µM (inactive) | 31 µM (inactive) | > 47.5 µM (inactive) | 25.3 µM (inactive) | 27.8 µM (inactive) | 18.2 µM (inactive)
COC(=O)C(=O)C(C(=O)C(=O)Nc1ccc([N+](=O)[O-])cc1[N+](=O)[O-])c1nc2ccc([N+](=O)[O-])cc2nc1O (centres undefined) | > 100 µM (inactive) | > 100 µM (inactive) | 38.2 µM (inactive) | > 100 µM | > 100 µM (inactive) | > 100 µM (inactive) | 50.1 µM (inactive) | > 100 µM (inactive) | > 100 µM (inactive) | > 100 µM (inactive) | > 100 µM (inactive) | – | > 100 µM (inactive) | 43 µM (inactive) | > 100 µM (inactive) | > 100 µM (inactive)
CC(C)(C)C(=O)OCC1CCC(n2cnc3c(=O)[nH]c(N)nc32)O1 (centres undefined) | > 100 µM (inactive) | > 100 µM (inactive) | > 100 µM (inactive) | > 100 µM | > 100 µM (inactive) | > 100 µM (inactive) | – | > 100 µM (inactive) | > 100 µM (inactive) | > 100 µM (inactive) | > 100 µM (inactive) | > 100 µM (inactive) | > 100 µM (inactive) | – | > 100 µM (inactive) | > 100 µM (inactive)
N=C(NC(=N)Nc1ccc(S(=O)(=O)Nc2cnc3ccccc3n2)cc1)Nc1ccc(Br)cc1 | > 100 µM (inactive) | > 100 µM (inactive) | > 100 µM (inactive) | > 100 µM | > 100 µM (inactive) | > 100 µM (inactive) | > 100 µM (inactive) | > 100 µM (inactive) | > 100 µM (inactive) | > 100 µM (inactive) | > 100 µM (inactive) | > 100 µM (inactive) | > 100 µM (inactive) | > 100 µM (inactive) | > 100 µM (inactive) | –
Cn1cc2ccccc2c1-c1nc(F)nc(Nc2ccc(N)cc2)n1 | 18.1 µM (inactive) | 12.7 µM (inactive) | 23.3 µM (inactive) | 4.97 µM | 16.6 µM (inactive) | 12.7 µM (inactive) | 14.4 µM (inactive) | 20.8 µM (inactive) | 26.4 µM (inactive) | 21 µM (inactive) | 20 µM (inactive) | 13.3 µM (inactive) | 17.2 µM (inactive) | 16.8 µM (inactive) | 17.3 µM (inactive) | 15.5 µM (inactive)
COc1ccc(Sc2ccccc2[N+](=O)[O-])cc1 | 15.2 µM (inactive) | 22.8 µM (inactive) | 37 µM (inactive) | 5.86 µM | 16.6 µM (inactive) | 69.8 µM (inactive) | – | 12.4 µM (inactive) | > 100 µM (inactive) | 30.8 µM (inactive) | 72.8 µM (inactive) | 32.1 µM (inactive) | 21.2 µM (inactive) | 17.1 µM (inactive) | 36.9 µM (inactive) | 7.64 µM (inactive)
NC(=O)c1ncn(Cc2ccccc2)c1CNC(N)=S | > 100 µM (inactive) | > 100 µM (inactive) | > 100 µM (inactive) | > 100 µM | – | > 100 µM (inactive) | – | > 100 µM (inactive) | > 100 µM (inactive) | > 100 µM (inactive) | > 100 µM (inactive) | – | > 100 µM (inactive) | > 100 µM (inactive) | – | –
CCCCN(CCCC)C(=O)C(=O)C(C(=O)c1ccc(OC)cc1)c1ccc(OC)cc1 (centres undefined) | > 100 µM (inactive) | > 100 µM (inactive) | > 100 µM (inactive) | > 100 µM | > 100 µM (inactive) | > 100 µM (inactive) | – | > 100 µM (inactive) | > 100 µM (inactive) | > 100 µM (inactive) | > 100 µM (inactive) | > 100 µM (inactive) | > 100 µM (inactive) | – | > 100 µM (inactive) | > 100 µM (inactive)
